For assay [1], the target named is T1, human M2 receptor (Homo sapiens, UniProt P08172).
T1 sequence (P08172 1-466): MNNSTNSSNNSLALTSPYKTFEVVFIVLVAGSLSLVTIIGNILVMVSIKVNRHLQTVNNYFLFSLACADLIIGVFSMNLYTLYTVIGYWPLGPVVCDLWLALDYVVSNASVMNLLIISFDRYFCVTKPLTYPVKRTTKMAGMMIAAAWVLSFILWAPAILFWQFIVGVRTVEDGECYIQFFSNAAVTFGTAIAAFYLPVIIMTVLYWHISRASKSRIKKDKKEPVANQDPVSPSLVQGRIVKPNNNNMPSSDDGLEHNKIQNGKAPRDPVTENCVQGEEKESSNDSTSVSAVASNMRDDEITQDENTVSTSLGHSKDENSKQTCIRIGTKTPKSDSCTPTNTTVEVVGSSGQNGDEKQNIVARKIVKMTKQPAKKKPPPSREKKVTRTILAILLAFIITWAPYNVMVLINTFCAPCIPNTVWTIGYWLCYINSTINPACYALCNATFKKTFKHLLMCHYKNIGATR
In kind it is cell-based. Conditions: α >1 = positive cooperativity.

The target of assay [2] is T1, human M2 receptor. Conditions: for Emax: read-out: Efficiency, boosting of the acetylcholine effect at EC20 acetylcholine concentration.
Setting [3] is: shift in the acetylcholine dose-response curve (Allosteric EC50 shift, GraphPad PRISM).
The mark [4] stands for this setting: Receptor activity EC50, M2-GIRK1/4 activation test, acetylcholine at EC20, allosteric potency, in some cases mean values from two or more determinations.
Setting [5] is: shift of acetylcholine dose-response curve (Allosteric EC50 shift).
Setting [6] is: Receptor activity EC50, allosteric potency at EC20 acetylcholine, M2-GIRK1/4 reporter cells, in some cases mean of two or more determinations.

Like-named read-outs stand apart in the source and are kept apart here.

Broadly, the EC50 is the concentration needed to bring the measured effect to its halfway point. Higher therefore signals lower potency in that assay. For the compound `CC[C@H](NC(=O)c1cn(-c2ccc(F)cc2F)c2nc(N3CC=CC3=O)ccc2c1=O)C(F)(F)F` [Example 286, 1-(2,4-Difluorophenyl)-4-oxo-7-(2-oxo-2,5-dihydro-1H-pyrrol-1-yl)-N-[(2S)-1,1,1-trifluorobutan-2-yl]-1,4-dihydro-1,8-naphthyridine-3-carboxamide], the “Cooperativity (alpha factor)” value on human M2 receptor [1] (setting [3]) was 3. The compound also displayed an EC50 on human M2 receptor [2] (setting [4]) of 94 nM.
Consider `CC[C@H](NC(=O)c1cn(-c2c(F)cc(F)cc2F)c2nc(N3CC(CO)(CO)C3)ccc2c1=O)C(F)(F)F` [Example 503, 7-[3,3-Bis(hydroxymethyl)azetidin-1-yl]-4-oxo-N-[(2S)-trifluorobutan-2-yl]-1-(2,4,6-trifluorophenyl)-1,4-dihydro-1,8-naphthyridine-3-carboxamide], for which the “Cooperativity (alpha factor)” value on human M2 receptor [1] (setting [5]) turned out to be 24. At human M2 receptor [2] (setting [6]), this compound gave an EC50 of 28 nM. Moreover, the Emax on human M2 receptor [2] (M2-GIRK1/4 reporter cells) stood at 88.5%.
For `O=C(N[C@@H](C1CC1)C(F)(F)F)c1cn(-c2c(F)cc(F)cc2F)c2nc(N3CCCC[C@@H]3CO)ccc2c1=O` [Example 462, N-[(1 S)-1-Cyclopropyl-2,2,2-trifluoroethyl]-7-[(2R)-2-(hydroxymethyl)piperidin-1-yl]-4-oxo-1-(2,4,6-trifluorophenyl)-1,4-dihydro-1,8-naphthyridine-3-carboxamide] the same measures were 17, 18 nM and 88%.
For the compound `CC(COC(F)(F)F)NC(=O)c1cn(-c2ccc(F)cc2F)c2nc(N(C)C)ccc2c1=O` (racemic) [Example 231, 1-(2,4-Difluorophenyl)-7-(dimethylamino)-4-oxo-N-[1-(trifluoromethoxy)propan-2-yl]-1,4-dihydro-1,8-naphthyridine-3-carboxamide], the “Cooperativity (alpha factor)” value on human M2 receptor [1] (setting [3]) is on record as 12. Besides, the EC50 at human M2 receptor [2] (setting [4]) amounted to 120 nM.
For `CC[C@H](NC(=O)c1cn(-c2ccc(F)cc2F)c2nc(N3CCC(O)C3)ccc2c1=O)C(F)(F)F` (single isomer, unassigned) [Example 220], on human M2 receptor [1] (setting [3]), the “Cooperativity (alpha factor)” value came out at 29. The compound also came in with an EC50 at human M2 receptor [2] (setting [4]) of 116 nM.
As to `O=C(NC12CC3CC(CC(C3)C1)C2)c1cn(-c2ccc(F)cc2F)c2nc(N3CCC4(C3)CC4(F)F)ccc2c1=O` (centres unmarked) [Example 13, 7-(1,1-Difluoro-5-azaspiro[2.4]hept-5-yl)-1-(2,4-difluorophenyl)-4-oxo-N-(tricyclo[3.3.1.1^3,7]dec-1-yl)-1,4-dihydro-1,8-naphthyridine-3-carboxamide], at human M2 receptor [1] (setting [3]), the “Cooperativity (alpha factor)” value is listed as 6. Besides, the EC50 at human M2 receptor [2] (setting [4]) was determined as 71 nM.
Turning to `CC(C)C(NC(=O)c1cn(-c2c(F)cc(F)cc2F)c2nc(N3C[C@@H](O)[C@H](O)C3)ccc2c1=O)C(F)(F)F` (single isomer, unassigned) [Example 553], the “Cooperativity (alpha factor)” value at human M2 receptor [1] (setting [5]) stood at 49. The EC50 at human M2 receptor [2] (setting [6]) worked out at 13 nM. For the same compound, the Emax on human M2 receptor [2] (M2-GIRK1/4 reporter cells) was 97.5%.
For `CC[C@@H](NC(=O)c1cn(-c2c(F)cccc2F)c2nc(N3CC4CC4(O)C3)ccc2c1=O)C(F)(F)F` (single isomer, unassigned) [Example 306], on human M2 receptor [1] (setting [3]), the “Cooperativity (alpha factor)” value was 21. The compound further came in with an EC50 at human M2 receptor [2] (setting [4]) of 52 nM.
Consider `CC[C@@H](NC(=O)c1cn(-c2c(F)cccc2F)c2nc(N3CC4CC4(O)C3)ccc2c1=O)C(F)(F)F` (single isomer, unassigned) [Example 305], for which the “Cooperativity (alpha factor)” value at human M2 receptor [1] (setting [3]) worked out at 23. A half-maximal response on human M2 receptor [2] (setting [4]) (EC50) required 12 nM.
For `CC[C@@H](NC(=O)c1cn(-c2c(F)cccc2F)c2nc(N3C[C@@H](O)[C@@H](O)C3)ccc2c1=O)C(F)(F)F` [Example 648, 1-(2,6-Difluorophenyl)-7-[(3R,4S)-3,4-dihydroxypyrrolidin-1-yl]-4-oxo-N-[(2R)-1,1,1-trifluorobutan-2-yl]-1,4-dihydro-1,8-naphthyridine-3-carboxamide], at human M2 receptor [1] (setting [5]), the “Cooperativity (alpha factor)” value came to 49. Further, on human M2 receptor [2] (setting [6]), the EC50 stood at 81 nM. Moreover, the Emax at human M2 receptor [2] (M2-GIRK1/4 reporter cells) worked out at 96.5%.
Consider `O=C(NC(c1c(F)cccc1F)C(F)(F)F)c1cn(-c2ccc(F)cc2F)c2nc(N3CC[C@H](F)C3)ccc2c1=O` (single isomer, unassigned) [Example 242], for which, on human M2 receptor [1] (setting [3]), the “Cooperativity (alpha factor)” value turned out to be 10. For the same compound, a half-maximal effect at human M2 receptor [2] (setting [4]) (EC50) was put at 90 nM.
